{"source": "patent US7728005B2", "about": "“Ether derivative” (Ajinomoto Co., Inc., priority 2003, dated 2010)", "key": {"male ICR mouse": {"test_system": "male ICR mouse", "assay": "Acetic acid-induced writhing method", "type": "in vivo", "procedure": "The effect of the test compound in the writhing test method induced by acetic acid was examined using male ICR mouse (4-week-old). For intraperitoneal administration of the test compound, the test compound was dissolved in saline containing 5% DMSO and 5% Tween 80 to a suitable concentration, and administered at a dose of 5 ml/kg at 30 min before acetic acid administration. For oral administration of the test compound, the test compound was suspended in 0.5% CMC and administered at a dose of 5 ml/kg at 1 hr before acetic acid administration. Acetic acid was diluted with saline to 0.9%, intraperitoneally administered at a dose of 5 ml/kg and, starting 5 min thereafter, the number of writhing responses was counted for 15 min. Saline containing 5% DMSO and 5% Tween 80 was also intraperitoneally administered to the control group (vehicle administration group). As the standard product, indomethacin was used, which was suspended in 0.5% tragacanth gum and orally administered at 90 min before acetic acid administration. 0.5% Tragacanth gum was administered to the control group.\nThe number of writhing responses by each test compound is shown in FIG. 1 and the number of writhing responses by indomethacin is shown in FIG. 2."}, "Male ICR mice": {"test_system": "Male ICR mice", "assay": "Mustard oil-induced thermal hyperalgesia model method (hot plate test)", "type": "in vivo", "conditions": "1.0 mg/kg oral, 1 hr before hot plate test; ICR mouse", "procedure": "Male ICR mice (5 to 7-week-old) were used. Mustard oil 10% (diluted with distilled water) was subcutaneously injected into both hind paws, and a hot plate test was performed 30 min […] later. The animal was placed on a hot plate and the latency for nociceptive behavior was measured and used as an index. The compound was suspended in 0.5% CMC and orally administered at a dose of 5 ml/kg at 1 hr before the hot plate test. The inhibitory rate was calculated relative to the index measured before administration as 100%."}}, "data": [{"molecule": "O=C(NCCOc1ccc(F)cc1)Nc1ccccc1Br", "note": "[Example 1, N-(2-bromophenyl)-N′-[2-(4-fluorophenoxy)ethyl]urea]", "values": [{"measurement": "inhibitory rate (number of writhing responses)", "setting": "male ICR mouse; 10 mg/kg intraperitoneal, 30 min before acetic acid", "result": 76, "unit": "%"}]}, {"molecule": "C[C@@H](COc1cccc(Cl)c1)NC(=O)Nc1cccc2cnccc12", "note": "[Example 38, N-[(1S)-2-(3-chlorophenoxy)-1-methylethyl]-N′-(isoquinolin-5-yl)urea]", "values": [{"measurement": "inhibition rate (latency for nociceptive behavior)", "setting": "Male ICR mice", "result": 57, "unit": "%"}]}, {"molecule": "COc1ccc2c(c1)c(CC(=O)O)c(C)n2C(=O)c1ccc(Cl)cc1", "note": "[indomethacin, reference compound]", "values": [{"measurement": "inhibitory rate (number of writhing responses)", "setting": "male ICR mouse; 30 mg/kg oral, 90 min before acetic acid", "result": 56, "unit": "%"}]}]}
